Measured values published in article PMC11002996 (Journal of medicinal chemistry, 2023).

Tests used:
[1] = biological target: T1, AIM2 inflammasome (Mus musculus, UniProt Q91VJ1); assay: Inhibition of AIM2 inflammasome; type: cell-based; details: LPS 1 μg/mL, poly(dA:dT) 4 μg/mL 4 h; 1 at 3 and 10 μM, 8 at 10 μM
T1 sequence (Q91VJ1 1-354): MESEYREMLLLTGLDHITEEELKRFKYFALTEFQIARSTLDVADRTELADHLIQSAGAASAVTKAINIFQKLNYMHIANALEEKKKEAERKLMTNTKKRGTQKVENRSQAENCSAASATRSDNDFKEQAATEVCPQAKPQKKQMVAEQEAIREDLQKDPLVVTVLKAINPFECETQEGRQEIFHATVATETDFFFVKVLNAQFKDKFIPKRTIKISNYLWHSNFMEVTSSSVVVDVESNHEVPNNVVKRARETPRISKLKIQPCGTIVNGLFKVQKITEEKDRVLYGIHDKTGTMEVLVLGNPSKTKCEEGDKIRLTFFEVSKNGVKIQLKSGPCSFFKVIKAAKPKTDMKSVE

[2] = system: priming by LPS (TNF-α); assay: LPS priming step, TNF-α in J774A.1 culture media by ELISA; type: cell-based, mouse; details: concentrations ≤ 3 μM
[3] = biological target: NLRC4 inflammasome (Mus musculus, UniProt Q3UP24); assay: Inhibition of NLRC4 inflammasome; type: cell-based; details: LPS 1 μg/mL, flagellin 1 μg/mL 6 h; 1 at 3 and 10 μM, 8 at 10 μM
Chain of NLRC4 inflammasome (Q3UP24 whole entry): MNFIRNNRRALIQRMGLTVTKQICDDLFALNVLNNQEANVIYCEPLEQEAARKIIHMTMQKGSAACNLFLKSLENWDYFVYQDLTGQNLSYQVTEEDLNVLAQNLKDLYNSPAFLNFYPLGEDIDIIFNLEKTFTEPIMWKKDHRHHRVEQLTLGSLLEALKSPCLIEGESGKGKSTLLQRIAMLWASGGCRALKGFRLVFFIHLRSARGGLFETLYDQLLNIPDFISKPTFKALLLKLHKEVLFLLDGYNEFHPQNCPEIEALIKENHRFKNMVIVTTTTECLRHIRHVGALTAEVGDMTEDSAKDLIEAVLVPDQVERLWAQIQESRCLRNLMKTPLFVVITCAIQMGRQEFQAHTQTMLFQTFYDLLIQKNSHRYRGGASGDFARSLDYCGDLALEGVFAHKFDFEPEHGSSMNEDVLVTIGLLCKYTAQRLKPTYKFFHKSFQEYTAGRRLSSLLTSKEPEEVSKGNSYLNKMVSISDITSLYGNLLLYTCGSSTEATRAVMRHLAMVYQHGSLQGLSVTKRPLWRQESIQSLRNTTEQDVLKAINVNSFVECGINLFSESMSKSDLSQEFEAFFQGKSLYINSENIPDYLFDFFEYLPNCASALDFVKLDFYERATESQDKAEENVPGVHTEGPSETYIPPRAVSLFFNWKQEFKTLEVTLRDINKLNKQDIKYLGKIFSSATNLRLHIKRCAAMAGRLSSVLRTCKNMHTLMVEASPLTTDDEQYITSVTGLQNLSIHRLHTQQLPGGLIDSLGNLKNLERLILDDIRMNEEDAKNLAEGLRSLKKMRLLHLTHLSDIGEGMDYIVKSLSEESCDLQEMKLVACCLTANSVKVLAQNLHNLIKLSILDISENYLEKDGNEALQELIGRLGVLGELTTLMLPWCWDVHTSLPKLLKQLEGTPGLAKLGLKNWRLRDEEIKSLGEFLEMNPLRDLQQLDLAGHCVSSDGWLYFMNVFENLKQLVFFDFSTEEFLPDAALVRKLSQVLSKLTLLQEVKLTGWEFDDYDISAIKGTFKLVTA

[4] = biological target: NLRP3 inflammasome (Mus musculus, UniProt Q8R4B8); details: IL-1β release, LPS/ATP
Chain of NLRP3 inflammasome (Mus musculus, UniProt Q8R4B8) (Q8R4B8 whole entry): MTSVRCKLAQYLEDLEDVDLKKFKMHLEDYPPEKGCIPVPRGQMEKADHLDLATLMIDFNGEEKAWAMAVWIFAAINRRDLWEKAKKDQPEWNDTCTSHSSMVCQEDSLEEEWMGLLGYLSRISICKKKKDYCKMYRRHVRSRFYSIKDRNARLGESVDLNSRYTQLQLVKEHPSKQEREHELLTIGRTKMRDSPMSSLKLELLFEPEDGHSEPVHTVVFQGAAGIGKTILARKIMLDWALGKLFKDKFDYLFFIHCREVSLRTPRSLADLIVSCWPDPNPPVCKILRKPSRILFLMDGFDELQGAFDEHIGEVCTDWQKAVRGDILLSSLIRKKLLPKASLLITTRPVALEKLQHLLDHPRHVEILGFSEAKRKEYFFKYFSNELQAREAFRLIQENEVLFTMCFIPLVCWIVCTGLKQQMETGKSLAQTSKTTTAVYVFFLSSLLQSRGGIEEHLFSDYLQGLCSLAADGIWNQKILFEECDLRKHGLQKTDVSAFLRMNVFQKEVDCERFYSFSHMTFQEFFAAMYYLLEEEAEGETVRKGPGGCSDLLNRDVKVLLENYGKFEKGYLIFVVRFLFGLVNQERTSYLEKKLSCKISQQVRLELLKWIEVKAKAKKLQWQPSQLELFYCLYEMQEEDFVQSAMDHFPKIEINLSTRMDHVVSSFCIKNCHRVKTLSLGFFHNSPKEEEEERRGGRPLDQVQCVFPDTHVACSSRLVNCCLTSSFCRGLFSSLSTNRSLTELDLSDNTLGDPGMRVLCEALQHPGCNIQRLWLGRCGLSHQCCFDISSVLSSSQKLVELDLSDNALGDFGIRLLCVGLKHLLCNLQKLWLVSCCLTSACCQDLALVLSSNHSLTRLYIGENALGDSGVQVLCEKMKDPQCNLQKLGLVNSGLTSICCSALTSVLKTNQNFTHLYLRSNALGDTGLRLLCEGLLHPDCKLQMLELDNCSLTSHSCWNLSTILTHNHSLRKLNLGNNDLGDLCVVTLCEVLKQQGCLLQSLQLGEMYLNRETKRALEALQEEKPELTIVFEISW

[5] = system: AD animal models; details: cited from earlier work
[6] = earlier work of the authors; cited from earlier work
[7] = biological target: human recombinant NLRP3 protein; details: cited from earlier work
[8] = system: NLRP3 inflammasome; details: read-out: IC50 (potency as NLRP3 inhibitor); cited from earlier work

## CCCOc1ccc(Cl)cc1Cn1cc(-c2ccccc2)nn1 [Compound 1, 1-(5-chloro-2-propoxybenzyl)-4-phenyl-1H-1,2,3-triazole]
[1]
  inhibition of the AIM2 inflammasome: only observed for the NLRC4 and AIM2 inflammasomes at higher concentrations
[2]
  interference with the priming by LPS: did not show interference
[3]
  inhibition of the NLRC4 inflammasome: only observed for the NLRC4 and AIM2 inflammasomes at higher concentrations

## CCCOc1ccc(Cl)cc1Cn1cc(-c2ccc(S(N)(=O)=O)cc2)nn1 [Compound 2, 4-(1-(5-chloro-2-propoxybenzyl)-1H-1,2,3-triazol-4-yl)benzenesulfonamide]
[4]
  inhibitory potency compared to 1: comparable potency

## CCCOc1ccc(Cl)cc1Cn1cc(-c2ccc(C(=O)O)cc2)nn1 [Compound 7, 4-(1-(5-chloro-2-propoxybenzyl)-1H-1,2,3-triazol-4-yl)benzoic acid]
[4]
  lower potency compared to 6: ~ 10 fold

## COC(=O)c1ccc(-c2cn(Cc3cc(Cl)ccc3OC)nn2)cc1 [Compound 8, Methyl 4-(1-(5-chloro-2-methoxybenzyl)-1H-1,2,3-triazol-4-yl)benzoate]
[1]
  inhibition of the AIM2 inflammasome: did not show inhibitory effects
[3]
  inhibition of the NLRC4 inflammasome: did not show inhibitory effects

## COC(=O)c1cccc(-c2cn(Cc3cc(Cl)ccc3OC)nn2)c1 [Compound 11, Methyl 3-(1-(5-chloro-2-methoxybenzyl)-1H-1,2,3-triazol-4-yl)benzoate]
[4]
  inhibitory potency compared to 8: decrease of inhibitory potency

## COc1ccc(Cl)cc1Cn1cc(-c2ccc(C(=O)O)cc2)nn1 [Compound 12, 4-(1-(5-chloro-2-methoxybenzyl)-1H-1,2,3-triazol-4-yl)benzoic acid]
[4]
  inhibitory potency compared to 8: significantly less potent

## CNC(=O)c1ccc(-c2cn(Cc3cc(Cl)ccc3OC)nn2)cc1 [Compound 13, 4-(1-(5-chloro-2-methoxybenzyl)-1H-1,2,3-triazol-4-yl)-N-methylbenzamide]
[4]
  inhibitory potency compared to 8: decreased inhibitory potency

## COc1ccc(Cl)cc1Cn1cc(-c2ccc(C(=O)N3CCC3)cc2)nn1 [Compound 14, Azetidin-1-yl(4-(1-(5-chloro-2-methoxybenzyl)-1H-1,2,3-triazol-4-yl)phenyl)methanone]
[4]
  inhibitory potency compared to 8: decreased inhibitory potency

## COC(=O)c1ccc(-c2cn(Cc3cc(Cl)ccc3OC)nn2)c(C)c1 [Compound 15, Methyl 4-(1-(5-chloro-2-methoxybenzyl)-1H-1,2,3-triazol-4-yl)-3-methylbenzoate]
[4]
  decrease in inhibitory potency compared to 8: 3–4 fold

## COC(=O)c1ccc(-c2cn(Cc3cc(Cl)ccc3OC)nn2)c(F)c1 [Compound 16, Methyl 4-(1-(5-chloro-2-methoxybenzyl)-1H-1,2,3-triazol-4-yl)-3-fluorobenzoate]
[4]
  decrease in inhibitory potency compared to 8: 3–4 fold

## COC(=O)c1ccc(-c2cn(Cc3ccccc3)nn2)cc1 [Compound 24, Methyl 4-(1-benzyl-1H-1,2,3-triazol-4-yl)benzoate]
[4]
  inhibitory potency compared to 8: ~3–7-fold decrease or complete loss of potency

## COC(=O)c1ccc(-c2cn(Cc3ccccc3OC)nn2)cc1 [Compound 25, Methyl 4-(1-(2-methoxybenzyl)-1H-1,2,3-triazol-4-yl)benzoate]
[4]
  inhibitory potency compared to 8: ~3–7-fold decrease or complete loss of potency

## COC(=O)c1ccc(-c2cn(Cc3cccc(Cl)c3)nn2)cc1 [Compound 26, Methyl 4-(1-(3-chlorobenzyl)-1H-1,2,3-triazol-4-yl)benzoate]
[4]
  inhibitory potency compared to 8: ~3–7-fold decrease or complete loss of potency

## COC(=O)c1ccc(-c2cn(Cc3cc(Cl)ccc3O)nn2)cc1 [Compound 27, Methyl 4-(1-(5-chloro-2-hydroxybenzyl)-1H-1,2,3-triazol-4-yl)benzoate]
[4]
  decrease in inhibitory potency compared to 8: ~ 5 fold

## COC(=O)c1ccc(-c2cn(Cc3cc(Cl)cc(OC)c3)nn2)cc1 [Compound 28, Methyl 4-(1-(3-chloro-5-methoxybenzyl)-1H-1,2,3-triazol-4-yl)benzoate]
[4]
  inhibitory potency compared to 8: comparable potency

## COC(=O)c1ccc(-c2cn(Cc3cc(F)ccc3OC)nn2)cc1 [Compound 32, Methyl 4-(1-(5-fluoro-2-methoxybenzyl)-1H-1,2,3-triazol-4-yl)benzoate]
[4]
  decrease in inhibitory potency compared to 8: 2–3 fold

## COC(=O)c1ccc(-c2cn(Cc3cc(Br)ccc3OC)nn2)cc1 [Compound 33, Methyl 4-(1-(5-bromo-2-methoxybenzyl)-1H-1,2,3-triazol-4-yl)benzoate]
[4]
  decrease in inhibitory potency compared to 8: 2–3 fold

## COC(=O)c1ccc(-c2cn(Cc3cc(C(F)(F)F)ccc3OC)nn2)cc1 [Compound 34, Methyl 4-(1-(2-methoxy-5-(trifluoromethyl)benzyl)-1H-1,2,3-triazol-4-yl)benzoate]
[4]
  inhibitory potency compared to 8: comparable potency

## CNS(=O)(=O)c1ccc(CCNC(=O)c2cc(Cl)ccc2OC)cc1 [JC124]
[5]
  in vivo efficacy: in vivo efficacy
[6]
  metabolism / metabolic stability in mouse liver microsomes: relatively better metabolic stability

## C#CCNS(=O)(=O)c1ccc(CCN(Cc2cc(Cl)ccc2OCCC)C(=O)Cc2ccsc2)cc1 [YQ128]
[6]
  metabolism / metabolic stability in mouse liver microsomes: rapid metabolism
[7]
  Kd: 117 nM
[8]
  IC50: 300 ± 10 nM
